Activity calls are given as the source filed them. The calls are words filed in the database; no cut-off is given here.
What was measured:
[1] = AUC (0 to t) in Sprague-Dawley rat at 20 mg/kg, po measured upto 12 hrs by UPLC-MS/ESI analysis; type: ADME, organism-based; design: time < 12 hrs, dose 20 mg/kg, route po; conditions: in vivo
[2] = Cmax in Sprague-Dawley rat at 20 mg/kg, po measured upto 12 hrs by UPLC-MS/ESI analysis; type: ADME, organism-based; design: time < 12 hrs, dose 20 mg/kg, route po; conditions: in vivo
B16-F10 [3] = experiment: Antitumor activity against mouse B16-F10 cells implanted in C57 mouse assessed as reduction in tumor weight at 2.5 mg/kg, ip administered every day for 14 days in the presence of NP19; type: functional, organism-based; conditions: time 14.0 day
[4] = Apparent volume of distribution in Sprague-Dawley rat at 20 mg/kg, po measured upto 12 hrs by UPLC-MS/ESI analysis; type: ADME, organism-based; conditions: in vivo
HUVEC = experiment: Disruption of vasculature in HUVEC cells assessed as interruption of capillary like networks incubated for 6 hrs by phase contrast microscopic analysis; type: functional, cell-based; conditions: Homo sapiens, dose 0.5-5 nM
HepG2 [5] = experiment: Cell cycle arrest in human HepG2 cells assessed as accumulation of cells at G1 phase at 0.5 nM incubated for 48 hrs by RNaseA/PI staining based flow cytometric analysis (reference value: 56.11%); type: functional
HepG2 [6] = experiment: Antiproliferative activity against human HepG2 cells assessed as inhibition of cell proliferation incubated for 48 hrs by MTT assay; type: functional, cell-based; conditions: HepG2, 48 h
B16-F10 [7] = experiment: Antitumor immunity in C57 mouse implanted with mouse B16-F10 cells assessed as increase in CD3+ CD4+ helper T cells in tumor at 5 mg/kg, ip administered every day for 14 days by flow cytometric analysis (reference value: 0.332%); type: functional; conditions: time 14 day
HepG2 [8] = experiment: Induction of apoptosis in human HepG2 cells assessed as early apoptotic cells at 1 nM incubated for 48 hrs by Annexin V-FITC/PI staining based flow cytometric analysis (reference value: 7.01 %); type: functional
HeLa = experiment: Antiproliferative activity against human HeLa cells assessed as inhibition of cell proliferation incubated for 48 hrs by MTT assay; type: functional, cell-based
[9] = Toxicity in C57 mouse implanted with mouse B16-F10 cells assessed as body weight loss at 2.5 mg/kg, ip administered every day for 14 days in the presence of NP19; type: organism-based; conditions: in vivo, 336 h, time 14 day
HepG2 [10] = experiment: Cell cycle arrest in human HepG2 cells assessed as accumulation of cells at G2 phase at 0.5 nM incubated for 48 hrs by RNaseA/PI staining based flow cytometric analysis (reference value: 17.37%); type: functional
[11] = Cytotoxicity against HUVEC cells assessed as inhibition of cell proliferation incubated for 24 hrs by MTT assay; type: toxicity, cell-based; conditions: human
HepG2 [12] = experiment: Cell cycle arrest in human HepG2 cells assessed as accumulation of cells at G2 phase at 5 nM incubated for 48 hrs by RNaseA/PI staining based flow cytometric analysis (reference value: 17.37%); type: functional
[13] = Half-life in Sprague-Dawley rat at 20 mg/kg, po measured upto 12 hrs by UPLC-MS/ESI analysis; type: ADME, organism-based; conditions: in vivo
[14] = Toxicity in C57 mouse implanted with mouse B16-F10 cells assessed as body weight loss at 5 mg/kg, ip administered every day for 14 days; type: organism-based; conditions: in vivo, 336 h, time 14 day
HepG2 [15] = experiment: Cell cycle arrest in human HepG2 cells assessed as accumulation of cells at G2 phase at 1 nM incubated for 48 hrs by RNaseA/PI staining based flow cytometric analysis (reference value: 17.37%); type: functional
[16] = Toxicity in C57 mouse implanted with mouse B16-F10 cells assessed as pathological changes in kidney at 5 mg/kg, ip administered every day for 14 days by H&E staining based microscopic analysis; type: organism-based; conditions: in vivo, 336 h, time 14 day
[17] = Toxicity in C57 mouse implanted with mouse B16-F10 cells assessed as pathological changes in kidney at 2.5 mg/kg, ip administered every day for 14 days in the presence of NP19 by H&E staining based microscopic analysis; type: organism-based; conditions: in vivo, 336 h, time 14 day
[18] = MRT(0 to t) in Sprague-Dawley rat at 2 mg/kg, iv measured upto 12 hrs by UPLC-MS/ESI analysis; type: ADME, organism-based; conditions: in vivo
B16-F10 [19] = experiment: Antitumor immunity in C57 mouse implanted with mouse B16-F10 cells assessed as increase in CD3+ CD8+ cytotoxic T cells in tumor at 5 mg/kg, ip administered every day for 14 days by flow cytometric analysis (reference value: 0.340%); type: functional; conditions: time 14 day
[20] = Tmax in Sprague-Dawley rat at 20 mg/kg, po measured upto 12 hrs by UPLC-MS/ESI analysis; type: ADME, organism-based; conditions: in vivo
[21] = Toxicity in C57 mouse implanted with mouse B16-F10 cells assessed as pathological changes in heart at 5 mg/kg, ip administered every day for 14 days by H&E staining based microscopic analysis; type: organism-based; conditions: in vivo, 336 h, time 14 day
HepG2 [22] = experiment: Cell cycle arrest in human HepG2 cells assessed as accumulation of cells at S phase at 1 nM incubated for 48 hrs by RNaseA/PI staining based flow cytometric analysis (reference value: 23.81%); type: functional
[23] = Resistance index, ratio of IC50 for antiproliferative activity against paclitaxel resistant human A2780/Taxol cells to IC50 for antiproliferative activity against parental human A2780S cells; type: functional
HepG2 [24] = experiment: Induction of apoptosis in human HepG2 cells assessed as necrotic cells at 1 nM incubated for 48 hrs by Annexin V-FITC/PI staining based flow cytometric analysis (reference value: 0.443%); type: functional
B16-F10 [25] = experiment: Antitumor activity against mouse B16-F10 cells implanted in C57 mouse assessed as reduction in tumor volume at 2.5 mg/kg, ip administered every day for 14 days in the presence of NP19; type: functional, organism-based; conditions: time 14.0 day
[26] = Tmax in Sprague-Dawley rat at 2 mg/kg, iv measured upto 12 hrs by UPLC-MS/ESI analysis; type: ADME, organism-based; conditions: in vivo
HepG2 [27] = experiment: Antimigratory activity in human HepG2 cells assessed as reduction in recovery area at 0.5 nM incubated for 24 hrs by wound healing assay (reference value: 65.84%); type: functional; design: scale not given: the % may be the effect or the level left
A2780S = experiment: Antiproliferative activity against parental human A2780S cells assessed as inhibition of cell proliferation incubated for 48 hrs by MTT assay; type: functional, cell-based
HepG2 [28] = experiment: Cell cycle arrest in human HepG2 cells assessed as accumulation of cells at S phase at 0.5 nM incubated for 48 hrs by RNaseA/PI staining based flow cytometric analysis (reference value: 23.81%); type: functional
HepG2 [29] = experiment: Cell cycle arrest in human HepG2 cells assessed as accumulation of cells at G1 phase at 5 nM incubated for 48 hrs by RNaseA/PI staining based flow cytometric analysis (reference value: 56.11%); type: functional
[30] = Acute toxicity in C57 mouse assessed as survival rate at 100 mg/kg, po administered daily for 14 days relative to control; type: organism-based; conditions: in vivo, time 14 day, read-out: Activity
[31] = MRT(0 to infinity) in Sprague-Dawley rat at 2 mg/kg, iv measured upto 12 hrs by UPLC-MS/ESI analysis; type: ADME, organism-based; conditions: in vivo
HepG2 [32] = experiment: Induction of apoptosis in human HepG2 cells assessed as necrotic cells at 0.5 nM incubated for 48 hrs by Annexin V-FITC/PI staining based flow cytometric analysis (reference value: 0.443%); type: functional
[33] = Antiproliferative activity against paclitaxel resistant human A549/TxR cells assessed as inhibition of cell proliferation incubated for 48 hrs by MTT assay; type: functional, cell-based

Q: Which AUC(0-t) at 12 h [1] does the source give for `COc1cc(-c2nccc3[nH]c(-c4cccc5c4ccn5C)nc23)cc(OC)c1OC` here?
A: 3330 ng·h/mL

Q: What about the Cmax [2] of the same compound?
A: 879 ng/mL

Q: What about the Activity (B16-F10 [3]) of the same compound?
A: Active

Q: What about the Vz [4] of the same compound?
A: 16.84 L/kg

Q: And the Activity (HUVEC)?
A: Dose-Dependent Effect

Q: What about the Activity (HepG2 [5]) of the same compound?
A: 49.61%

Q: What about the IC50 (HepG2 [6]) of the same compound?
A: 1 nM

Q: What about the Activity (B16-F10 [7]) of the same compound?
A: 0.954%

Q: And the Activity (HepG2 [8])?
A: 31.3%

Q: What about the IC50 (HeLa) of the same compound?
A: 9 nM

Q: What about the Activity [9] of the same compound?
A: Non-Toxic

Q: What about the Activity (HepG2 [10]) of the same compound?
A: 20.73%

Q: What about the IC50 at 24 h [11] of the same compound?
A: 62.1 nM

Q: And the Activity (HepG2 [12])?
A: 55.89%

Q: And the half-life [13]?
A: 1.83 h

Q: What about the Activity [14] of the same compound?
A: Non-Toxic

Q: What about the Activity (HepG2 [15]) of the same compound?
A: 36.46%

Q: And the Activity [16]?
A: Non-Toxic

Q: And the Activity [17]?
A: Non-Toxic

Q: What about the MRT last at 12 h [18] of the same compound?
A: 1.79 h

Q: What about the Activity (B16-F10 [19]) of the same compound?
A: 0.923%

Q: What about the Tmax [20] of the same compound?
A: 0.92 h

Q: What about the Activity [21] of the same compound?
A: Non-Toxic

Q: What about the Activity (HepG2 [22]) of the same compound?
A: 20.35%

Q: And the “Ratio IC50” value [23]?
A: 3.2

Q: And the Activity (HepG2 [24])?
A: 0.189%

Q: And the Activity (B16-F10 [25])?
A: Active

Q: And the Tmax [26]?
A: 4.98 min

Q: And the Activity (HepG2 [27])?
A: 42.2%

Q: What about the IC50 (A2780S) of the same compound?
A: 1.6 nM

Q: And the Activity (HepG2 [28])?
A: 27.34%

Q: And the Activity (HepG2 [29])?
A: 20.19%

Q: What about the survival at 336 h [30] of the same compound?
A: 0%

Q: What about the MRT inf [31] of the same compound?
A: 1.86 h

Q: And the Activity (HepG2 [32])?
A: 0.428%

Q: What about the IC50 [33] of the same compound?
A: 15.3 nM

Source: ChEMBL document CHEMBL5338766, “X-ray Crystal Structure-Guided Discovery of Novel Indole Analogues as Colchicine-Binding Site Tubulin Inhibitors with Immune-Potentiating and Antitumor Effects against Melanoma” (J Med Chem, 2023)
